Source: patent US8044076B2, “Phenyl derivatives and their use as immunomodulators” (Actelion Pharmaceuticals Ltd., priority 2006, dated 2011)

Molecular target: human S1P1 receptor (Homo sapiens, UniProt P21453)
Assay: GTPγS assay to determine EC50 values
Assay type: biochemical
Conditions: 35S-GTPγS binding, membrane preparations of CHO cells expressing recombinant human S1P1 receptor
Protocol: GTPγS binding assays are performed in 96 well microtiter plates (Nunc, 442587) in a final volume of 200 μl, using membrane preparations of CHO cells expressing recombinant human S1P1 receptor. Assay conditions are 20 mM Hepes (Fluka, 54461), 100 mM NaCl (Fluka, 71378), 5 mM MgCl2 (Fluka, 63064), 0.1% BSA (Calbiochem, 126609), 1 μM GDP (Sigma, G-7127), 2.5% DMSO (Fluka, 41644), 50 pM ^35S-GTPγS (Amersham Biosciences, SJ1320). The pH is 7.4. Test compounds are dissolved and diluted in 100% DMSO and pre-incubated at room temperature for 30 min in 150 μl of the above assay buffer, in the absence of ^35S-GTPγS. After addition of 50 μl of ^35S-GTPγS, the assay is incubated for 1 h at rt. The assay is terminated by transfer of the reaction mixture to a Multiscreen plate (Millipore, MAHFC1H60) using a cell harvester from Packard Biosciences, and the plates are washed with ice-cold 10 mM Na2HPO4/NaH2PO4 (70%/30%), dried, sealed at the bottom and, after addition of 25 μl MicroScint20 (Packard Biosciences, order#6013621), sealed on the top. Membrane-bound ^35S-GTPγS is measured with a TopCount from Packard Biosciences.
EC50 is the concentration of agonist inducing 50% of the maximal specific ^35S-GTPγS binding. Specific binding is determined by subtracting non-specific binding from maximal binding. […]
The EC50 values were determined according to the method described above: […]

Chain of human S1P1 receptor (P21453 whole entry): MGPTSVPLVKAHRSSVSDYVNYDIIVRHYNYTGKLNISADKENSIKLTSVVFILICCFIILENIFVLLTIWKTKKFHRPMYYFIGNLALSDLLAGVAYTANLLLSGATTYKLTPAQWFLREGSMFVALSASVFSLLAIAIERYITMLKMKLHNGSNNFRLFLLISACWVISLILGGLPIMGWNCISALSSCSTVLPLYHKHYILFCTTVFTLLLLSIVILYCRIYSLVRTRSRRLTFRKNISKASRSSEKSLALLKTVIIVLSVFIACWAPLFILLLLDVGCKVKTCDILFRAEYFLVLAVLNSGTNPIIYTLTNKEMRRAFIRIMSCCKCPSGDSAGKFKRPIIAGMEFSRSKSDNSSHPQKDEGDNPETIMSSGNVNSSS

Question: `Cc1cc(-c2nc(-c3cc(C)c(OCC(O)CNC(=O)CO)c(C)c3)no2)ccc1OC(C)C` (centres unmarked) [Example 6] was tested. Which EC50 did it give?
Answer: The EC50 was 100 pM.

Question: Which EC50 does the source give for `Cc1cc(-c2nc(-c3cc(C)c(OCC(O)CNC(=O)CO)c(C)c3)no2)ccc1CC(C)C` (centres unmarked) [Example 20] here?
Answer: The EC50 was 800 pM.
